The subject of data set [1] is CTLL-2 cells. The data set can be described thus: IL-15-induced CTLL-2 cell proliferation assay. The conditions noted are these: for IC50: fixed IL-15 concentration of 300 μg/mL, colorimetric assay. Format: cell-based. The text has this:
The proliferation of the CTLL-2 cell line is dependent on IL-15. Molecular entities that bind to IL-15 or its receptor subunit inhibit the proliferation of this cell line. To evaluate the antagonist capacity of peptides designed and obtained in the present invention, was followed the procedure described by Santos et al in 2012. Peptide 1 was included in all assays.
The realization of this colorimetric assay allowed calculating the IC50 value of each peptide, for a fixed IL-15 concentration of 300 μg/mL.

The target of data set [2] is T1, IL-15/IL-15Rα complex (Homo sapiens, UniProt Q13261).
T1 construct: all evaluated peptides recognized IL-15Rα immobilized on the ELISA plate
The data set can be described thus: Inhibition of IL-15/IL-15Rα complex formation (ELISA-type test). Format: binding. The procedure: Once the synthetic peptides were obtained and characterized, their binding capacity to IL-15Rα was determined. This evaluation was carried out by means of an ELISA type test. In addition, the % inhibition of the formation of the IL-15/IL-15Rα complex presented by each peptide was calculated. Both the procedure for the ELISA-type test and the equation used to calculate the % inhibition of the formation of the IL-15/IL-15Rα complex are detailed in the article published by Santos et al in 2012 (Santos A. et al. J. Pept. Sci. 2012; 18: 25-29).

Data set [3] can be described thus: Solubility of the peptides.

“Also recorded” adds a separate entry of the source. Where a SMILES comes first, the peptide text is derived from it. Bridges are numbered along the chain shown (N, C = ends). Roman numbers before positions name the chains, in order. Where no end group is shown, it is not given here. [ ]: non-standard residue; d: D form.

T1 sequence (Q13261 31-205 limits assumed, one chain of several): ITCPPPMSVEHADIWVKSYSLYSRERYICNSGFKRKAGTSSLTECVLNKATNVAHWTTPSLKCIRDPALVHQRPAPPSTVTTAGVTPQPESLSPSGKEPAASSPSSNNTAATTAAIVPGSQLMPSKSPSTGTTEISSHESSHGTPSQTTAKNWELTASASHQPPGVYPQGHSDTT

For “KVTAMKCFLL-NH2 [Peptide 1, reference compound]”, in data set [1], it took 130 µM to reach half-maximal inhibition (IC50). As to `CSCC[C@H](NC(=O)[C@@H](C)NC(=O)[C@@H](NC(=O)[C@@H](NC(=O)[C@H](N)CCCCN)C(C)C)[C@@H](C)O)C(=O)N[C@@H](CCCCN)C(=O)N[C@@H](CS)C(=O)N[C@@H](Cc1ccccc1)C(=O)N[C@@H](CC(C)C)C(=O)N[C@@H](CC(C)C)C(N)=O` [Peptide 13] (H-[dK]VT[dA]MKCFLL-NH2), the “% inhibition of IL-15/IL-15Rα complex formation” value (from here on “% inhibition”) in data set [2] is reported as 89%. In data set [1], this compound had an IC50 of 29 µM. Besides, the solubility result in data set [3] is “completely soluble”.

`CSCC[C@@H](NC(=O)[C@H](C)NC(=O)[C@@H](NC(=O)[C@@H](NC(=O)[C@@H](N)CCCCN)C(C)C)[C@@H](C)O)C(=O)N[C@@H](CCCCN)C(=O)N[C@@H](CS)C(=O)N[C@@H](Cc1ccccc1)C(=O)N[C@@H](CC(C)C)C(=O)N[C@@H](CC(C)C)C(N)=O` [Peptide 6] (H-KVTA[dM]KCFLL-NH2) registered a half-inhibitory concentration (IC50) in data set [1] of 292 µM. Same read-out and setting: the value for `CSCC[C@H](NC(=O)[C@H](C)NC(=O)[C@@H](NC(=O)[C@H](NC(=O)[C@@H](N)CCCCN)C(C)C)[C@@H](C)O)C(=O)N[C@@H](CCCCN)C(=O)N[C@@H](CS)C(=O)N[C@@H](Cc1ccccc1)C(=O)N[C@@H](CC(C)C)C(=O)N[C@@H](CC(C)C)C(N)=O` [Peptide 3] (H-K[dV]TAMKCFLL-NH2) was 142 µM; that for `CSCC[C@H](NC(=O)[C@H](C)NC(=O)[C@@H](NC(=O)[C@@H](NC(=O)[C@@H](N)CCCCN)C(C)C)[C@@H](C)O)C(=O)N[C@@H](CCCCN)C(=O)N[C@H](CS)C(=O)N[C@@H](Cc1ccccc1)C(=O)N[C@@H](CC(C)C)C(=O)N[C@@H](CC(C)C)C(N)=O` [Peptide 8] (H-KVTAMK[dC]FLL-NH2) was 103 µM. Same read-out and setting: in the case of `CSCC[C@H](NC(=O)[C@H](C)NC(=O)[C@H](NC(=O)[C@@H](NC(=O)[C@@H](N)CCCCN)C(C)C)[C@H](C)O)C(=O)N[C@@H](CCCCN)C(=O)N[C@@H](CS)C(=O)N[C@@H](Cc1ccccc1)C(=O)N[C@@H](CC(C)C)C(=O)N[C@@H](CC(C)C)C(N)=O` [Peptide 4] (H-KV[dT]AMKCFLL-NH2) it was 159 µM. For the compound `CSCC[C@H](NC(=O)[C@@H](C)NC(=O)[C@@H](NC(=O)[C@@H](NC(=O)[C@@H](N)CCCCN)C(C)C)[C@@H](C)O)C(=O)N[C@@H](CCCCN)C(=O)N[C@@H](CS)C(=O)N[C@@H](Cc1ccccc1)C(=O)N[C@@H](CC(C)C)C(=O)N[C@@H](CC(C)C)C(N)=O` [Peptide 5] (H-KVT[dA]MKCFLL-NH2), in data set [2], the “% inhibition” value is listed as 92%. For the same compound, in data set [1], the IC50 was found to be 28 µM. Besides, the solubility entry in data set [3] is “completely soluble”. Turning to `CSCC[C@H](NC(=O)[C@H](C)NC(=O)[C@@H](NC(=O)[C@@H](NC(=O)[C@@H](N)CCCCN)C(C)C)[C@@H](C)O)C(=O)N[C@H](CCCCN)C(=O)N[C@@H](CS)C(=O)N[C@@H](Cc1ccccc1)C(=O)N[C@@H](CC(C)C)C(=O)N[C@@H](CC(C)C)C(N)=O` [Peptide 7] (H-KVTAM[dK]CFLL-NH2), in data set [1], the midpoint of inhibition, the IC50, lay at 168 µM.

In the case of `CSCC[C@H](NC(=O)[C@H](C)NC(=O)[C@@H](NC(=O)[C@@H](NC(=O)[C@@H](N)CCCCN)C(C)C)[C@@H](C)O)C(=O)N[C@@H](CCCCN)C(=O)N[C@@H](CS)C(=O)N[C@H](Cc1ccccc1)C(=O)N[C@@H](CC(C)C)C(=O)N[C@@H](CC(C)C)C(N)=O` [Peptide 9] (H-KVTAMKC[dF]LL-NH2), the IC50 in data set [1] came out at 118 µM. Same read-out and setting: the value for `CSCC[C@H](NC(=O)[C@H](C)NC(=O)[C@@H](NC(=O)[C@@H](NC(=O)[C@H](N)CCCCN)C(C)C)[C@@H](C)O)C(=O)N[C@@H](CCCCN)C(=O)N[C@@H](CS)C(=O)N[C@@H](Cc1ccccc1)C(=O)N[C@@H](CC(C)C)C(=O)N[C@@H](CC(C)C)C(N)=O` [Peptide 2] (H-[dK]VTAMKCFLL-NH2) was 100 µM. `CSCC[C@H](NC(=O)[C@@H](C)NC(=O)[C@@H](NC(=O)[C@@H](NC(=O)[C@@H](N)CCCCN)C(C)C)[C@@H](C)O)C(=O)N[C@@H](CCCCN)C(=O)N[C@H](CS)C(=O)N[C@@H](Cc1ccccc1)C(=O)N[C@@H](CC(C)C)C(=O)N[C@@H](CC(C)C)C(N)=O` [Peptide 15] (H-KVT[dA]MK[dC]FLL-NH2; N-terminus assumed): the “antagonist effect compared with Peptide 1” value in data set [1] (IL-15-induced CTLL-2 proliferation) is on record as “equal or less antagonist effect than the original peptide; also recorded: less active than Peptide 1”. In data set [1], this compound registered a concentration for half-maximal inhibition (IC50) of 296 µM. In the case of `CSCC[C@H](NC(=O)[C@@H](C)NC(=O)[C@@H](NC(=O)[C@@H](NC(=O)[C@@H](N)CCCCN)C(C)C)[C@@H](C)O)C(=O)N[C@@H](CCCCN)C(=O)N[C@@H](CSSC[C@H](NC(=O)[C@H](CCCCN)NC(=O)[C@H](CCSC)NC(=O)[C@@H](C)NC(=O)[C@@H](NC(=O)[C@@H](NC(=O)[C@@H](N)CCCCN)C(C)C)[C@@H](C)O)C(=O)N[C@@H](Cc1ccccc1)C(=O)N[C@@H](CC(C)C)C(=O)N[C@@H](CC(C)C)C(N)=O)C(=O)N[C@@H](Cc1ccccc1)C(=O)N[C@@H](CC(C)C)C(=O)N[C@@H](CC(C)C)C(N)=O` [Peptide 12] (I: H-KVT[dA]MKCFLL-NH2 / II: H-KVT[dA]MKCFLL-NH2; disulfide I:7-II:7), in data set [2], the “% inhibition” value is reported as 96%. In data set [1], this compound displayed an IC50 of 8 µM. In addition, the solubility entry in data set [3] is “completely soluble”. Take `CSCC[C@H](NC(=O)[C@H](C)NC(=O)[C@@H](NC(=O)[C@@H](NC(=O)[C@@H](N)CCCCN)C(C)C)[C@@H](C)O)C(=O)N[C@@H](CCCCN)C(=O)N[C@@H](CS)C(=O)N[C@@H](Cc1ccccc1)C(=O)N[C@@H](CC(C)C)C(=O)N[C@H](CC(C)C)C(N)=O` [Peptide 11] (H-KVTAMKCFL[dL]-NH2): the 50% inhibitory concentration (IC50) in data set [1] was determined as 133 µM. On to `CSCC[C@H](NC(=O)[C@@H](C)NC(=O)[C@@H](NC(=O)[C@@H](NC(=O)[C@H](N)CCCCN)C(C)C)[C@@H](C)O)C(=O)N[C@@H](CCCCN)C(=O)N[C@@H](CSSC[C@H](NC(=O)[C@H](CCCCN)NC(=O)[C@H](CCSC)NC(=O)[C@@H](C)NC(=O)[C@@H](NC(=O)[C@@H](NC(=O)[C@H](N)CCCCN)C(C)C)[C@@H](C)O)C(=O)N[C@@H](Cc1ccccc1)C(=O)N[C@@H](CC(C)C)C(=O)N[C@@H](CC(C)C)C(N)=O)C(=O)N[C@@H](Cc1ccccc1)C(=O)N[C@@H](CC(C)C)C(=O)N[C@@H](CC(C)C)C(N)=O` [Peptide 14] (I: H-[dK]VT[dA]MKCFLL-NH2 / II: H-[dK]VT[dA]MKCFLL-NH2; disulfide I:7-II:7), for which the “% inhibition” value in data set [2] was determined as 92%. Besides, the IC50 in data set [1] came to 12 µM. Moreover, the solubility result in data set [3] was “completely soluble”. Take `CSCC[C@H](NC(=O)[C@H](C)NC(=O)[C@@H](NC(=O)[C@@H](NC(=O)[C@@H](N)CCCCN)C(C)C)[C@@H](C)O)C(=O)N[C@@H](CCCCN)C(=O)N[C@@H](CS)C(=O)N[C@@H](Cc1ccccc1)C(=O)N[C@H](CC(C)C)C(=O)N[C@@H](CC(C)C)C(N)=O` [Peptide 10] (H-KVTAMKCF[dL]L-NH2): the IC50 in data set [1] stood at 134 µM.
